Results taken from US9150531B2, “Tricyclic lactones for treatment of cancer” (Glactone Pharma Development AB, priority 2010, dated 2015).

What was measured:
[1] = system: STAT-3 transcription factor; assay: STAT3 inhibition, luciferase reporter (4xM67 pTATA TK-Luc) in HeLa cells stimulated with γ-Interferon; format: cell-based; settings: Homo sapiens, γ-Interferon 8 h, luciferase activity, read-out: Anti STAT3 IC50
Procedure: HeLa cells (4×10^4/ml) were transiently transfected with a luciferase reporter plasmid (4×M67 pTATA TK-Luc) driven by artificial promoter containing 4 repeated M67 binding sites in tandem for the STAT-3 transcription factor. The transfections were performed for 24 h using Roti-Fect reagent (Carl Roth, Karlsruhe, Germany) according to the manufacturer's recommendations. After incubation with different concentrations of the extracts for 30 min the transfected cells were stimulated for 8 h with γ-Interferon. Then, the cells were lysed in 25 mM Tris-phosphate pH 7.8, 8 mM MgCl2, 1 mM DTT, 1% Triton X-100, and 7% glycerol. Luciferase activity was measured as described for 5.1 cells.
γ-Interferon induces an average of 5-6 fold induction of the luciferase activity compared to non stimulated cells and this represent the index of transactivation that is represented in our experiment as the maximum levels of γ-Interferon-induced STAT-3 activation (100%). Results below represent the IC50 for each compound in this assay. The IC50 means the concentration of each compound that reduces luciferase activity by 50% and it was calculated by GraphPad software.

LNCaP-IL6 cells = assay: WST-1 proliferation assay, LNCaP-IL6 cells; format: cell-based, human
Procedure: (§1) The human prostate cancer cell lines DU145, LNCaP (from the American Type culture Collection, ATCC) and long-term interleukin-6 (IL-6) stimulated LNCaP cells (LNCaP-IL6 cells) (Hobisch, Ramoner et al. 2001) were used. The cells were cultured in RPMI 1640 medium supplemented with 10% FBS and 1% penicillin-streptomycin. All cells were incubated at 37° C. in a humidified atmosphere of […] and 5% CO2.
(§2) WST-1 proliferation assay was performed to study the effects of the test items on the proliferation and viability of cultured prostate cancer cells. LNCaP and DU145 cells were cultured in 96-well plates at the density of 2 000 cells/well in 200 μl of medium. Cells were allowed to set for 24 h. The cells were treated with 0, 2.5, 5 or 10 μM of the specific substance for 24 h and 48 h. Samples were made in triplicate. 20 μl WST-1 solution (Roche Applied Science, Mannheim, Germany) was added per well and incubated at 37° C. for 4 h. The absorbance of each well was measured using a scanning multiwell spectrophotometer, ELISA reader at a wavelength of 450 nm and reference wavelength of 690 nm. The results are presented as percent of untreated control cells or the absorbance value.

DU145 = assay: WST-1 proliferation assay, DU145 cells (Example 16); format: cell-based, human
Procedure: as §1, §2

IC50 [1]	SMILES	% Proliferation (vs control) 24 h LNCaP-IL6 (LNCaP-IL6 cells; 2.5 uM)	% Proliferation (vs control) 48 h LNCaP-IL6 (LNCaP-IL6 cells; 2.5 uM)	% Proliferation (vs control) 24 h LNCaP-IL6 (LNCaP-IL6 cells; 5 uM)	% Proliferation (vs control) 48 h LNCaP-IL6 (LNCaP-IL6 cells; 5 uM)	% Proliferation (vs control) 24 h LNCaP-IL6 (LNCaP-IL6 cells; 10 uM)	% Proliferation (vs control) 48 h LNCaP-IL6 (LNCaP-IL6 cells; 10 uM)	% Proliferation (vs control) 24 h DU145 (DU145; 2.5 uM)	% Proliferation (vs control) 48 h Du145 (DU145; 2.5 uM)	% Proliferation (vs control) 24 h DU145 (DU145; 5 uM)	% Proliferation (vs control) 48 h Du145 (DU145; 5 uM)	% Proliferation (vs control) 24 h DU145 (DU145; 10 uM)	% Proliferation (vs control) 48 h Du145 (DU145; 10 uM)
750 nM	COC(=O)C1=C[C@H](C)C[C@H]2C[C@@H](c3ccccc3)[C@@H]3O[C@]123 (stereo in doubt) [Example 8, methyl 5-methyl-2-phenyl-1a,2,3,3a,4,5-hexahydroindeno[1,7a-b]oxirene-7-carboxylate]	69.23%	48.79%	58.97%	20.28%	52.67%	18.81%	80.94%	63.59%	58.19%	27.29%	48.49%	19.98%
2010 nM	COC(=O)C1=C[C@H](C)C[C@H]2C[C@@H](Cc3ccccc3)[C@@H]3O[C@]123 (stereo in doubt) [Example 9, methyl 2-benzyl-5-methyl-1a,2,3,3a,4,5-hexahydroindeno[1,7a-b]oxirene-7-carboxylate]	92.78%	104.12%	90.02%	108.49%	96.73%	96.48%	96.36%	93.96%	88.29%	85.24%	75.01%	55.43%
2980 nM	COC(=O)C1=C[C@H](C)C[C@H]2C[C@H](Cc3ccccc3)[C@@H]3O[C@]123 (stereo in doubt) [Example 10, methyl 2-benzyl-5-methyl-1a,2,3,3a,4,5-hexahydroindeno[1,7a-b]oxirene-7-carboxylate]	81.18%	74.81%	92.69%	80.02%	76.05%	23.18%	86.82%	88.02%	98.85%	92.54%	66.76%	28.27%
2490 nM	COC(=O)C1=C[C@H](C)C[C@H]2CC(C)(C)[C@@H]3O[C@]123 (stereo in doubt) [Example 11, methyl 2,2,5-trimethyl-1a,2,3,3a,4,5-hexahydroindeno[1,7a-b]oxirene-7-carboxylate]	93.47%	78.36%	89.35%	71.85%	79.82%	31.62%	93.88%	85.06%	80.42%	67.77%	72.14%	45.51%
